Laboratory results: BindingDB's records for doi:10.3109/14756361003698147 (Shandong University, 2012)
Counter-ions that a name gives are not always drawn.

Columns and labels:
[1] = target: 72 kDa type IV collagenase (Homo sapiens, UniProt P08253); test: In Vitro MMP-2 Inhibition Assay; conditions: pH 8.5; 25 °C
Aminopeptidase N = target: T1, Aminopeptidase N (Sus scrofa, UniProt P15145); test: In Vitro APN Inhibition Assay
T1 sequence (P15145 whole entry): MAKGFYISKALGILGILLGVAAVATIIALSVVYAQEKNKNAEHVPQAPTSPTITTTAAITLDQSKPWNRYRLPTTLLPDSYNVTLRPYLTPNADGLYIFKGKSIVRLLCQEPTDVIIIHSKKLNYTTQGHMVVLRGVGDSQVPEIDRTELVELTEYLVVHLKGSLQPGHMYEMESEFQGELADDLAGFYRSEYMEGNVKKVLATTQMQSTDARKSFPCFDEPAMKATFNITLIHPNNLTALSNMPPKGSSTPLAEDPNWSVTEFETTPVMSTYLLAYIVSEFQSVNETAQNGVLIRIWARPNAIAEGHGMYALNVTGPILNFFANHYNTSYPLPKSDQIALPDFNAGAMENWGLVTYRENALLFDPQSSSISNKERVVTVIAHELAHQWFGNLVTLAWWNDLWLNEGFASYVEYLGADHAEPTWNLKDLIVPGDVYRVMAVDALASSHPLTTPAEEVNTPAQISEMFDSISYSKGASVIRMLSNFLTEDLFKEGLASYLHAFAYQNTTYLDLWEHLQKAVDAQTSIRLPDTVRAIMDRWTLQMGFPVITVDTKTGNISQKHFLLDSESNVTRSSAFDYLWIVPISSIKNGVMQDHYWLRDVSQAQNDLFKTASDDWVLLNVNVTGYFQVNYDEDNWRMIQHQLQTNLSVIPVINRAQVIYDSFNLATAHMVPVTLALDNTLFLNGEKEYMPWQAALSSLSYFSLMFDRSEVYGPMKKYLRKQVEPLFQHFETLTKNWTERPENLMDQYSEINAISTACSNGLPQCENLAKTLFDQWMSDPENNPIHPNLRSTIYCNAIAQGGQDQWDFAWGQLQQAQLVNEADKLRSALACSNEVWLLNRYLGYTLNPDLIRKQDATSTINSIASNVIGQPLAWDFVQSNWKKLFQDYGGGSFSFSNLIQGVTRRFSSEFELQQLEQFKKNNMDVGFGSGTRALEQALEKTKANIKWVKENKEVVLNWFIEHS
Description: Allcompounds were pre-incubated with APN on a 96-well plate for 30 min. […] Fifteen minutes later, the absorbance (OD405) of the wells was recorded on a microplate reader.

Chain of 72 kDa type IV collagenase (P08253 whole entry): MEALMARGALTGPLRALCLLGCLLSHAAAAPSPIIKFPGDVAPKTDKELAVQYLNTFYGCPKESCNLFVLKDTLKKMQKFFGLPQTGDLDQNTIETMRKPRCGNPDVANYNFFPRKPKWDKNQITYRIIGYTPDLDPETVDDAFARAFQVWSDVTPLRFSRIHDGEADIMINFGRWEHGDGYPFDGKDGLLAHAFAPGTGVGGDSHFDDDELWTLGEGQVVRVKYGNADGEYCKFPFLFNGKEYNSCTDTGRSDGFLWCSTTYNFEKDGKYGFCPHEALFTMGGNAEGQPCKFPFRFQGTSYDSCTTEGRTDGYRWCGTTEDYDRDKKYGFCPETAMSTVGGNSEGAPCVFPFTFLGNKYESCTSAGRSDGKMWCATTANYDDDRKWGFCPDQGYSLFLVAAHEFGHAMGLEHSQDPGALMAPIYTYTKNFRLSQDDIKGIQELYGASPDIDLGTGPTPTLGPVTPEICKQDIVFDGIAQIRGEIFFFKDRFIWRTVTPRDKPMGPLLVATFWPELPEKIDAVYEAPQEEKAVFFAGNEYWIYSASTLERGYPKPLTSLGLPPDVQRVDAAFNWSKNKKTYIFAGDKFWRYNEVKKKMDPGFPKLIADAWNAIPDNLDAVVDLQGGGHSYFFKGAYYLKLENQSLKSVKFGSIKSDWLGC

How did the IC50 [1] turn out when CC(C)C[C@H](NC(=O)[C@@H](O)[C@H](N)Cc1ccccc1)C(=O)O was run?
The IC50 was 167 µM.

What does the source list for CC(C)C[C@H](NC(=O)[C@@H](O)CN)C(=O)O?
IC50 (Aminopeptidase N): 199 µM; IC50 [1]: 364 µM

With NC[C@H](O)C(=O)N[C@@H](Cc1ccccc1)C(=O)O [(2S)-2-[(2S)-3-amino-2-hydroxypropanamido]-3-phenylpropanoic acid (12a)] as the compound, how does the IC50 (Aminopeptidase N) read?
The IC50 was 249 µM.

And the IC50 [1]?
Its IC50 is 710 µM.

Which IC50 (Aminopeptidase N) does the source give for NC[C@H](O)C(=O)N[C@@H](Cc1ccccc1)C(=O)OCc1ccccc1 [L-Isoseryl-L- phenylalanine benzyl ester hydrochloride (11c)] here?
The IC50 was 99.5 µM.

What about the IC50 [1] of the same compound?
Its IC50 is 329 µM.

What does the source list for CC(C)C[C@H](NC(=O)[C@@H](O)CN)C(=O)OCc1ccccc1 [L-Isoseryl-L-leucine benzyl ester hydrochloride (11d)]?
IC50 (Aminopeptidase N): 195 µM; IC50 [1]: 1000 µM

With COC(=O)[C@H](CC(C)C)NC(=O)[C@@H](O)CN [L-Isoseryl-L-leucine methyl ester hydrochloride (11b)] as the compound, how does the IC50 (Aminopeptidase N) read?
Its IC50 is 229 µM.

What about the IC50 [1] of the same compound?
The IC50 was 682 µM.

How did the IC50 (Aminopeptidase N) turn out when CC(C)C[C@H](NC(=O)[C@@H](O)CN)C(=O)N[C@@H](Cc1ccccc1)C(=O)O [L-Isoseryl-L-leucyl-L-phenylalanine hydrochloride (14a)] was run?
Its IC50 is 20.9 µM.

And the IC50 [1]?
The IC50 was 115 µM.

Which results are given for COC(=O)[C@H](Cc1ccccc1)NC(=O)[C@H](CC(C)C)NC(=O)[C@@H](O)CN [L-Isoseryl-L-leucyl-L-phenylalanine methyl ester hydrochloride (13a)]?
IC50 (Aminopeptidase N): 140 µM; IC50 [1]: 126 µM

Which IC50 (Aminopeptidase N) does the source give for CC(C)C[C@H](NC(=O)[C@H](Cc1ccccc1)NC(=O)[C@@H](O)CN)C(=O)OCc1ccccc1 [L-Isoseryl-L-phenylalanyl-L-leucine benzyl ester hydrochloride (13d)] here?
Its IC50 is 32.2 µM.

And the IC50 [1]?
The IC50 was 334 µM.

For CC(C)C[C@H](NC(=O)[C@H](Cc1ccccc1)NC(=O)[C@@H](O)CN)C(=O)O [L-Isoseryl-L-phenylalanyl-L-leucine hydrochloride (14b)], which IC50 (Aminopeptidase N) is on record?
The IC50 was 12.2 µM.

What about the IC50 [1] of the same compound?
Its IC50 is 203 µM.

How did the IC50 (Aminopeptidase N) turn out when COC(=O)[C@H](Cc1ccccc1)NC(=O)[C@@H](O)CN [Methyl (2S)-2-[(2S)-3-amino-2-hydroxypropanamido]-3-phenylpropanoate (11a)] was run?
The IC50 was 302 µM.

What about the IC50 [1] of the same compound?
Its IC50 is greater than 1000 µM.
